The values below come from patent US10501453B2, “Benzothiazole or benzoxazole compounds as SUMO activators” (Icahn School of Medicine at Mount Sinai, priority 2012, dated 2019).

Data set [1] is described as follows: Pharmacokinetic analysis in mice. Conditions: mouse, in vivo, ip; murine model, 10 mg/kg intraperitoneal dose. The procedure:
FIG. 12 depicts the pharmacokinetic analysis of the compound of Example 1 in mice at a 10 mg/kg intraperitoneal dose.

Data set [2] concerns SERCA2a. The data set is described as follows: Endogenous SERCA2a SUMOylation profiling and protein expression in ARVMs. It counts as cell-based, rat. The method, then:
Calcium-tolerant adult rat ventricular myocytes (ARVMs) were obtained from hearts of male Sprague-Dawley rats (250 to 300 g). The heart was excised and perfused with a standard enzymatic technique. ARVMs were plated on multi-chambered plates or culture dishes, pre-coated with laminin 2 μg/cm^2, at a density of 10^5 cells/cm^2 in DMEM without L-glutamine supplemented with 10 mmol/l HEPES, 3.7 mg/ml NaHCO3, 1 mg/ml glucose, 0.11 mg/ml sodium pyruvate, 2 mg/ml bovine serum albumin, 2 mmol/1 L-camitine, 5 mmol/1 creatine, 5 mmol/1 taurine, 1% penicillin-streptomycin, and 1% gentamycin. Following isolation, cells were allowed to settle for 1 hour. Cultures were incubated at 37° C., in an atmosphere of 5% CO2-95% air. Fresh medium was added gently as medium was being drawn off until the cultures had been thoroughly washed. Only quiescent, rod-shape cardiac myocytes were selected for IonOptix experiments.
Equal amounts of protein from either small molecule treated or DMSO treated cells or immunoprecipitates were resolved by 7.5% SDS-PAGE and transferred to nitrocellulose membranes (Bio-Rad, catalog no. 162-0112). The membranes were blocked for 1 hour at room temperature with 5% non-fat milk (Cell Signaling Technology Inc., catalog no. 9999) in TBST (10 mM Tris-HCl, 150 mM NaCl, and 0.05% tween-20, pH 8.0). […]
The effects of the Example compound was examined on isolated rat cardiomyocytes shortening and relaxation parameters. […] Effects of Example 1 on mechanical properties of the ARVMs were assessed using a video-based edge detection system (IonOptix). The time constant of the increase of force during the stretch decreased (tau), percentage of peak shortening (PS), maximal rate of relaxation and contraction were analyzed at 24 hrs postincubation of the compounds in culture media (N=10 ARVMs). The mechanical data were analyzed with student's t-test (FIG. 2A, P<0.05 compared to the DMSO treated cells). SERCA2a SUMOylation profiling was analyzed in a same set of ARVMs (FIG. 2B, WCL, whole cell lysates; S-SERCA2a, SUMOylated SERCA2a). […]

In data set [3] the test system is SERCA2a. As to the kind of experiment: SERCA2a SUMOylation assay in HEK-293 cells (immunoprecipitation/immunoblotting). It counts as cell-based. An excerpt: The following antibodies were used for immunoblotting and immunoprecipitation (IP): polyclonal anti-SERCA2a (21th century Biochem Inc.), monoclonal anti-GAPDH (Sigma-Aldrich, catalog no. G8795), monoclonal anti-SUMO 1 (Cell Signaling Technology Inc., catalog no. 4930), anti-mouse horseradish peroxidase (HRP) (Pierce Biotechnology Inc., catalog no. 32430), and anti-rabbit HRP (Pierce Biotechnology Inc., catalog no. 32460). YFP-tagged SUMO1, pcDNA3.0-SERCA2a, and HA-tagged Ubc9 plasmids were used for the transfection. The plasmid DNA was amplified in the Escherichia coli strain DH5a and extracted by using a commercial purification kit (Qiagen, catalog no. 12263). Purified plasmid was resuspended in sterile TE buffer (10 mM Tris-HCl and 1 mM EDTA, pH 7.6). Only the preparation highest purity (A260/A280>1.8) was used for transfection. 1 μg of each plasmid was used for transfection. HEK-293 cells (American Type Culture Collection, catalog no. CRL-1873) were grown at 37° C. and under a 5% CO2 humidified atmosphere in Dulbecco's modified Eagle's medium (DMEM, Cellgro, catalog no. 10-0 13-CM) containing 10% fetal bovine serum (SAFC Bioscience, catalog no. 12107) and 100 i.u of penicillin/ml and 100 μg of streptomycin/ml. HEK-293 cells were seeded at a density of 3-5×10^5 cells per 60 mm culture dish in DMEM. The cells were transiently transfected using Lipofectamine 2000 (Invitrogen, catalog no. 11668) with indicated expression plasmids. After 24 hours, the cells were treated with either small molecules or dimethyl sulfoxide (DMSO, Sigma-Aldrich, catalog no. D2650).
Each compound was added at 10 μM. DMSO was used as a control. After 24 hours at 37° C., SERCA2a SUMOylation and functional analysis were determined.
Equal amounts of protein from either small molecule treated or DMSO treated cells or immunoprecipitates were resolved by 7.5% SDS-PAGE and transferred to nitrocellulose membranes (Bio-Rad, catalog no. 162-0112). The membranes were blocked for 1 hour at room temperature with 5% non-fat milk (Cell Signaling Technology Inc., catalog no. 9999) in TBST (10 mM Tris-HCl, 150 mM NaCl, and 0.05% tween-20, pH 8.0). The blots were incubated with specific primary antibodies at 4° C. for overnight. The blots were then washed five times for 10 minutes each with TBST and incubated for 1 hour with HRP-conjugated secondary antibodies in TBST with 5% non-fat milk. After five times TBST washes, the protein bands were visualized with enhanced chemiluminescence (Pierce Biotechnology Inc., catalog no. 32132) and exposed to x-ray film (Denville Scientific Inc., catalog no. E3012). GAPDH expression provided an internal control.
Post-transfection (48 hours), the HEK-293 cells were rinsed twice with phosphate-buffered saline (PBS, Cellgro, catalog no. 21-040-CM) and lysed in 1% Nonidet P-40 lysis buffer (Boston Bioproducts, catalog no. BP-119) with 10 mM N-ethylmaleimide (NEM, Sigma-Aldrich, catalog no. N3876) and […] inhibitor cocktail (Complete Mini Tablet, Roche Applied Science, catalog no. 11836153001). 2 mg of protein were mixed with the anti-SERCA2a antibodies for overnight at 4° C. in lysis buffer. Pre-washed protein A-Separose beads (Pierce Biotechnology Inc., catalog no. 20333) was added to each sample and incubated 1 hour at 4° C. with gentle rocking. Immunocomplexes were washed with lysis buffer three times and precipitated by centrifugation at 12000×g for 10 seconds. The immunocomplexes were resuspended in SDS sample buffer and subjected to immunoblotting. Controls for the immunoprecipitations were performed using an anti-rabbit IgG equal to that of the primary precipitating antibody. Ten percent of whole cell lysates used in the immunoprecipitation was loaded for subsequent immunoblotting.
The ability of the Example compound to SUMOylate SERCA2a was examined using an in vitro system in HEK 293 cells where both SERCA2a and SUMO 1 are expressed. […]
(A western blot detects proteins with antibodies after separation by electrophoresis.)

The next data set addresses SUMO E2 enzyme, UBC9. As to the kind of experiment: Transfer of activated SUMO-1 from SUMO E1 to SUMO E2 enzyme UBC9 (gel-based assay). The data set is classed as biochemical.

For orientation: Cmax means the peak of the concentration-time curve. As a reminder, the half-life is the time needed for the level to fall by half in the phase considered. Usually EC50 stands for the concentration that produces a half-maximal response.

In data set [1], `COc1ccc(-c2nnc(Nc3nc4c(OC)cccc4s3)o2)cc1` [Example 1, N-(4-methoxybenzo[d]thiazol-2-yl)-5-(4-methoxyphenyl)-1,3,4-oxadiazol-2-amine] came in with a Cmax of 2240 nM and a half-life of 1.09 h. Besides, in the data set on SERCA2a [2] (dose response), the “levels of SERCA2a SUMOylation with increasing amount of compound” value is given as “increased levels of SERCA2a SUMOylation”; the “protein expression levels of E1, E2 enzymes, SERCA2a and SUMO-1” value was “not changed”. Moreover, the “endogenous SERCA2a SUMOylation” value with SERCA2a [2] (isolated rodent adult cardiomyocytes) is “significantly increased”. Also, in the data set with SERCA2a [3], the “SERCA2a SUMOylation in HEK 293 cells” value is “increases SUMOylation of SERCA2a in a dose dependent manner”. Moreover, the EC50 at SUMO E2 enzyme, UBC9 was 10.2 ± 0.28 µM.
